Results on five compounds are retold here after patent US6146615A, “Contrast agents for image enhancement in magnetic resonance imaging” (priority 1999, dated 2000).

Entries after “also recorded” stand apart in the source; their conditions may differ.

The subject of one series is mice. The following applies: metal chloride salts in aqueous solution, mice i.p.; cited from earlier work.
In series [1] the test system is liver and kidney. Kind of series: MR imaging experiments on healthy rats: percent enhancement of liver and kidney. Conditions: 0.10 mmol/kg, tail vein, FIG. 1. It is filed as in vivo, rat (female Fischer 344). The procedure:
Animal studies were performed with a 1.5-T superconducting MR unit (Signa. GE Medical Systems) using a send-and-receive head coil containing two anesthetized female Fischer 344 rats. After a localizer image were obtained, a spin-echo pulse sequence were used with a 256×256 matrix (three signals acquired) over a 20-cm field of view with a thickness of 3 mm and a 1.5-mm intersection gap. The pulse sequence parameters were TR =300 ms and TE =20 ms. Sagittal images were collected before administration of the contrast agent, and after administration, five more images were collected. Operator defined region-of-interest (ROI) measurements were made upon the organs under study for the pre- and postcontrast images. ROI measurements were recorded for the liver and kidney. For the liver, three slices were studied and for the kidneys, a single slice through each kidney was studied.
Percent enhancement was calculated by the following equation: [formula]
Female Fischer 334 rats were used in the imaging experiments. The subjects were weighed and anesthetized with 65 mg/kg pentobarbital. The preinjection pulse sequence was performed, then the contrast agent was administered. The concentration used was 0.10 mmollkg with an injection volume of 0.5 mL used throughout, administered over a time range of approximately three minutes. […]

The test system of series [2] is liver and kidney. The following applies: over the same time period as FIG. 1; Davies et al. 1996, U.S. Pat. No. 5,494,656; cited from earlier work.
Series [3] concerns implanted prostatic tumors (Dunning R3327, MAT/Lu). Put plainly: T1-weighted MRI of tumor-bearing rats: percentage enhancement of tumor. It is filed as in vivo, rat (inbred Copenhagen, male). From the text:
(§1) A T1 -weighted MRI examination (SE 400/15; SISCO SIS 85, 2 T) of the iron complex of ligand XI, Fe-DESAC, in rats (inbred Copenhagen, male, ca. 250 g bw) with implanted prostatic tumors (Dunning R3327, MAT/Lu) in the thigh muscles has been performed.
Thus, differentiation of tumor from surrounding muscle was straightforward with both contrast agents.
(§2) A T1 -weighted MRI examination (SE 400/15; SISCO SIS 85, 2 T) of three of these new MR contrast agents, the Fe(III) complexes of ligands XI, XVII and XXII in rats (inbred Copenhagen, male, ca. 250 g bw) with implanted prostatic tumors (Dunning R3327, MAT/Lu) in the thigh muscles was performed.

The test system of another series is Muscle. Kind of series: T1-weighted MRI of tumor-bearing rats: percentage enhancement of muscle. It is filed as in vivo, rat (inbred Copenhagen, male). Conditions: 100 μmol agent/kg bw iv, muscle line below large tumor.
Description: as §1, §2

For the compound `[Mn+2]` [manganese], the LD50 (commonly the dose expected to kill half of the subjects tested) in the series with mice is recorded as 1.5 mmol/kg.
Fe(III) tris(tironate): the liver-specificity entry with liver and kidney [1] is listed as “does not show this tissue specificity”. In addition, the liver enhancement with liver and kidney [2] was at most 15%.
Consider iron, for which, in the series on mice, the LD50 was 1.6 mmol/kg.
Regarding `[Gd]` [gadolinium], the LD50 in the series with mice was 1.4 mmol/kg.
Turning to `O=C([O-])CN(CCN(CC(=O)[O-])CC(=O)O)CCN(CC(=O)[O-])CC(=O)O.[Gd+3]` [Gd-DTPA, gadolinium ion chelated with the ligand diethylenetriaminepentaacetic acid], the “Percentage enhancement, large, necrotic tumor, 1 hr” value in series [3] (100 μmol agent/kg bw iv, 1 hr post contrast) is given as “+52 ± 14%”. For the same compound, in series [3] (100 μmol agent/kg bw iv, 24 hr post contrast), the “Percentage enhancement, large, necrotic tumor, 24 hr” value was -11 ± 8%. Further, the “enhancement of necrotic tumor tissue” value in series [3] (large (almost completely necrotic) tumor, 24 hr post contrast) is “no such enhancement was found with Gd-DTPA; also recorded: no significant enhancement of tumor”. Also, in series [3] (single iv application), the “differentiation of tumor from surrounding muscle” value was “straightforward”. For the same compound, the “tumor enhancement, 3 hr” value in series [3] (single iv application, 3 hr post contrast) is “significant tumor enhancement”. Moreover, in the series on Muscle (1 hr post contrast), the “Percentage enhancement, muscle (large, necrotic tumor), 1 hr” value was “+10 ± 6%”. For the same compound, the “Percentage enhancement, muscle (large, necrotic tumor), 24 hr” value in the series with Muscle (24 hr post contrast) is listed as -4 ± 2%.
